Reference: ChEMBL document CHEMBL4354832, “Discovery of a Covalent Inhibitor of KRASG12C (AMG 510) for the Treatment of Solid Tumors” (J Med Chem, 2020)
pIC50: −log10 of the molar value. Values after ≈ are worked out from the molar mass of the structure shown. Values joined by “and” are separate entries in the source; they are usually repeats but may differ in a detail not shown here. Identical values can stand only once. Active and inactive are the calls of the source. No cut-off for these calls is given here.

What was measured:
GTPase KRas [1] = biological target: GTPase KRas (Homo sapiens, UniProt P01116, C118A/G12C); assay: Inhibition of GDP bound recombinant human His-tagged KRAS G12C/C118A mutant (1 to 169 residues) assessed as reduction in SOS1-mediated GDP/GTP nucleotide exchange by measuring the disruption between GDP-bound recombinant His-tagged KRAS G12C/C118A (1 to 169 residues) and Ras binding domain of GST-tagged c-RAF (1 to 149 residues) preincubated for 5 mins followed by SOS1 and GTP addition and further incubated for 30 mins by AlphaLISA assay
GTPase KRas [2] = biological target: GTPase KRas (Homo sapiens, UniProt P01116); assay: Inhibition of KRAS in human MIAPaca2 cells assessed as decrease in EGF-stimulated ERK1/2 phosphorylation preincubated for 2 hrs followed by EGF stimulation; type: cell-based
MIA PaCa-2 = assay: Antiproliferative activity against human MIAPaCa2 cells harboring KRAS G12C point mutant assessed as cell growth inhibition after 72 hrs by Celltiter-Glo luminescent cell viability assay; type: functional, cell-based; details: MIA PaCa-2, 72 h
A549 = assay: Antiproliferative activity against human A549 cells harboring KRAS G12S point mutant assessed as cell growth inhibition after 72 hrs by Celltiter-Glo luminescent cell viability assay; type: functional, cell-based; details: A549, 72 h
[3] = Intrinsic clearance in mouse cryopreserved hepatocytes assessed per 10^6 cells at 0.5 uM measured upto 60 mins by LCMS analysis; type: ADME, cell-based, Hepatocyte; details: read-out: CLH
[4] = Intrinsic clearance in human cryopreserved hepatocytes assessed per 10^6 cells at 0.5 uM measured upto 60 mins by LCMS analysis; type: ADME, cell-based, Hepatocyte; details: read-out: CLH
[5] = Permeability of compound across apical to basolateral membrane in MDCK2 cells at 10 to 50 uM incubated for 2 hrs under shaking condition by LC-MS/MS analysis; type: ADME, cell-based, Canis lupus familiaris, MDCK-II; details: dog, MDCK; read-out: permeability
[6] = Solubility of compound in PBS buffer at pH 7.4 incubated for 48 to 72 hrs under shaking conditions by LCMS analysis; type: physicochemical
[7] = Solubility of compound in FaSSIF incubated for 48 to 72 hrs under shaking conditions by LCMS analysis; type: physicochemical
[8] = Solubility of compound in 0.01N HCl at pH 2 incubated for 48 to 72 hrs under shaking conditions by LCMS analysis; type: physicochemical
[9] = Clearance in BALB/c mouse at 1 mg/kg, iv or 10 mg/kg, po; type: ADME, organism-based; details: in vivo
[10] = Volume of distribution at steady state in BALB/c mouse at 1 mg/kg, iv or 10 mg/kg, po; type: ADME, organism-based; details: in vivo, read-out: Vdss
[11] = Half life in BALB/c mouse at 1 mg/kg, iv or 10 mg/kg, po; type: ADME, organism-based; details: in vivo
[12] = Oral bioavailability in BALB/c mouse at 10 mg/kg; type: ADME, organism-based; details: in vivo
[13] = Half life of compound at 25 degree C; type: physicochemical
[14] = Protein binding in BALB/c mouse plasma assessed as unbound fraction by ultracentrifugation; type: ADME, cell-free
[15] = Ratio of unbound plasma concentration in BALB/c mouse at 10 mg/kg to IC50 for inhibition of KRAS in human MIAPaca2 cells assessed as decrease in EGF-stimulated ERK1/2 phosphorylation preincubated for 2 hrs followed by EGF stimulation; type: organism-based; details: in vivo
Mus musculus = assay: Decrease in ERK1/ERK2 phosphorylation in human MIAPaCa2 cells xenografted in athymic nude mouse at 10 to 100 mg/kg, po administered as single dose measured after 60 to 120 mins post-treatment; type: functional, organism-based

| pIC50 (MIA PaCa-2) | pIC50 (A549) | hepatocyte CLint at 0.5 µM [3] [µL/min/1e6 cells] | hepatocyte CLint at 0.5 µM [4] [µL/min/1e6 cells] | Papp A→B at 2 h, up to 50 µM [5] [×10⁻⁶ cm/s] | solubility thermodynamic [6] [µM] | solubility thermodynamic [7] [µM] | solubility thermodynamic [8] [µM] | clearance [9] [mL/min/kg] | Vd [10] [L/kg] | half-life [11] [min] | bioavailability [12] [%] | Compound | pIC50 (GTPase KRas [1]) | pIC50 (GTPase KRas [2]) | t1/2 [13] [h] | fraction unbound [14] | Ratio [15] | inhibition (Mus musculus) |
| --- | --- | --- | --- | --- | --- | --- | --- | --- | --- | --- | --- | --- | --- | --- | --- | --- | --- | --- |
| 7.96 | 4.94 | 109 | 32 | 6 | 14 (≈ 7.67 µg/mL) | 204 (≈ 112 µg/mL) | 14 (≈ 7.67 µg/mL) | 13.3 | 0.5 | 90 | 1.3 | C=CC(=O)N1CCN(c2nc(=O)n(-c3ccccc3C(C)C)c3nc(-c4c(O)cccc4F)c(Cl)cc23)CC1 | – | – | – | – | – | – |
| 7.80 | 4.31 | 100 | 9 | 1 | 426 (≈ 239 µg/mL) | 477 (≈ 267 µg/mL) | 484 (≈ 271 µg/mL) | 61.7 | 1.1 | 18 | 15 | C=CC(=O)N1CCN(c2nc(=O)n(-c3c(C(C)C)ccnc3C)c3nc(-c4c(O)cccc4F)c(F)cc23)[C@@H](C)C1 | – | – | – | – | – | – |
| 7.96 | 4.94 | 111 | 37 | 22 | 41 (≈ 22.9 µg/mL) | 164 (≈ 91.8 µg/mL) | 24 (≈ 13.4 µg/mL) | 33.3 | 1.1 | 30 | < 0.5 | C=CC(=O)N1CCN(c2nc(=O)n(-c3c(C)cccc3C(C)C)c3nc(-c4c(O)cccc4F)c(F)cc23)[C@@H](C)C1 | – | – | – | – | – | – |
| 8.52 | < 4.30 | 139 | 5 | 1 | 499 (≈ 288 µg/mL) | 500 (≈ 289 µg/mL) | 421 (≈ 243 µg/mL) | 58.3 | 0.4 | 18 | < 0.5 | C=CC(=O)N1CCN(c2nc(=O)n(-c3c(C)ncnc3C(C)C)c3nc(-c4c(O)cccc4F)c(Cl)cc23)[C@@H](C)C1 | – | – | – | – | – | – |
| 8.52 | 4.49 | 96 | 5 | 2 | 335 (≈ 193 µg/mL) | 435 (≈ 251 µg/mL) | 534 (≈ 308 µg/mL) | 23.3 | 1.4 | 24 | < 0.5 | C=CC(=O)N1CCN(c2nc(=O)n(-c3c(C(C)C)ccnc3C)c3nc(-c4c(O)cccc4F)c(Cl)cc23)[C@@H](C)C1 | – | – | – | – | – | – |
| 9.00 | 4.47 | 75 | 11 | 1 | 46 (≈ 26.5 µg/mL) | 381 (≈ 220 µg/mL) | 500 (≈ 289 µg/mL) | 65 | 0.8 | 24 | < 0.5 | C=CC(=O)N1CCN(c2nc(=O)n(-c3c(C)ccnc3C(C)C)c3nc(-c4c(O)cccc4F)c(Cl)cc23)[C@@H](C)C1 | – | – | – | – | – | – |
| – | – | – | – | – | – | – | – | – | – | – | – | C=CC(=O)N1CCN(c2nc(=O)n(-c3ccccc3C(C)C)c3nc(-c4c(O)cccc4F)c(Cl)cc23)[C@@H](C)C1 (stereo in doubt; (S)-18) | – | – | 190 | – | – | – |
| 8.05 | < 4.30 | 65 | 5 | < 1 | 495 (≈ 278 µg/mL) | 500 (≈ 281 µg/mL) | 500 (≈ 281 µg/mL) | 78.3 | 1.7 | 18 | 10 | C=CC(=O)N1CCN(c2nc(=O)n(-c3c(C)ncnc3C(C)C)c3nc(-c4c(O)cccc4F)c(F)cc23)[C@@H](C)C1 | – | – | – | – | – | – |
| 7.89 | 4.91 | 288 | 82 | 18 | 88 (≈ 47.9 µg/mL) | 299 (≈ 163 µg/mL) | 57 (≈ 31 µg/mL) | 28.3 | 0.8 | 30 | 10 | C=CC(=O)N1CCN(c2nc(=O)n(-c3ccccc3C(C)C)c3nc(-c4ccccc4O)c(Cl)cc23)[C@@H](C)C1 | – | – | – | – | – | – |
| 8.30 | 5.10 | 236 | 135 | 20 | 11 (≈ 6.01 µg/mL) | 224 (≈ 122 µg/mL) | – | 60 | 2.3 | 36 | 9 | C=CC(=O)N1CCN(c2nc(=O)n(-c3ccccc3C(C)C)c3nc(-c4ccccc4F)c(Cl)cc23)[C@@H](C)C1 | – | – | – | – | – | – |
| – | – | – | – | – | – | – | – | – | – | – | – | C=CC(=O)N1CCN(c2ncnc3c(F)c(-c4c(O)cccc4F)c(Cl)cc23)CC1 | 6.03 | 6.08 | – | – | – | – |
| – | – | – | – | – | – | – | – | – | – | – | – | C=CC(=O)N1CCN(c2nc(=O)n(-c3ccccc3C3CC3)c3nc(-c4c(O)cccc4F)c(Cl)cc23)[C@@H](C)C1 | 6.65 | 6.96 | – | – | – | – |
| – | – | – | – | – | – | – | – | – | – | – | – | C=CC(=O)N1CCN(c2nnc(-c3ccccc3Cl)c3cc(-c4c(O)cccc4F)c(Cl)cc23)CC1 | 5.45 | 5.45 | – | – | – | – |
| – | – | – | – | – | – | – | – | – | – | – | – | C=CC(=O)N1CCN(c2nnc(-c3ccccc3C)c3cc(-c4c(O)cccc4F)c(Cl)cc23)CC1 | 5.24 | 5.48 | – | – | – | – |

| Compound | pIC50 (MIA PaCa-2) | pIC50 (A549) | hepatocyte CLint at 0.5 µM [3] [µL/min/1e6 cells] | hepatocyte CLint at 0.5 µM [4] [µL/min/1e6 cells] | Papp A→B at 2 h, up to 50 µM [5] [×10⁻⁶ cm/s] | solubility thermodynamic [6] [µM] | solubility thermodynamic [7] [µM] | solubility thermodynamic [8] [µM] | clearance [9] [mL/min/kg] | Vd [10] [L/kg] | half-life [11] [min] | bioavailability [12] [%] | pIC50 (GTPase KRas [1]) | pIC50 (GTPase KRas [2]) | t1/2 [13] [h] | fraction unbound [14] | Ratio [15] | inhibition (Mus musculus) |
| --- | --- | --- | --- | --- | --- | --- | --- | --- | --- | --- | --- | --- | --- | --- | --- | --- | --- | --- |
| C=CC(=O)N1CCN(c2nc(=O)n(-c3ccccc3C(C)C)c3nc(-c4c(O)cccc4F)c(Cl)cc23)[C@@H](C)C1 (stereo in doubt; (R)-18) | 8.30 | 4.85 | 119 | 38 | 9 | 9 (≈ 5.06 µg/mL) | 184 (≈ 103 µg/mL) | 7 (≈ 3.93 µg/mL) | 6.67 | 0.4 | 78 | 33 | 7.29 | 7.36 | 5 | – | – | – |
| C=CC(=O)N1CCN(c2nc(=O)n(-c3scnc3C(C)C)c3nc(-c4c(O)cccc4F)c(Cl)cc23)[C@@H](C)C1 | – | – | – | – | – | – | – | – | 36.7 | – | 66 | 22 | – | 7.20 | – | 0.02 | 1.5 | – |
| C=CC(=O)N1CCN(c2nc(=O)n(-c3c(C)cccc3C(C)C)c3nc(-c4c(O)cccc4F)c(Cl)cc23)[C@@H](C)C1 | 8.70 | 4.92 | 102 | 30 | 15 | 12 (≈ 6.91 µg/mL) | 204 (≈ 118 µg/mL) | 9 (≈ 5.18 µg/mL) | 23.3 to 45 | – | 30 to 54 | 4 to 21 | – | 7.55 | – | 0.03 | 4.5 | Active |
| C=CC(=O)N1CCN(c2nc(=O)n(-c3c(C(C)C)ncnc3C(C)C)c3nc(-c4c(O)cccc4F)c(Cl)cc23)[C@@H](C)C1 | – | – | – | – | – | – | – | – | 38.3 | – | 48 | 13 | 7.68 | 7.60 | – | 0.03 | 0.8 | – |
| C=CC(=O)N1CCN(c2nc(=O)n(-c3c(C4CC4)ncnc3C3CC3)c3nc(-c4c(O)cccc4F)c(Cl)cc23)[C@@H](C)C1 | – | – | – | – | – | – | – | – | 55 | – | 30 | 7 | – | 7.44 | – | 0.08 | 0.6 | – |
| C=CC(=O)N1CCN(c2nc(=O)n(-c3c(CC)cccc3CC)c3nc(-c4c(O)cccc4F)c(Cl)cc23)[C@@H](C)C1 | – | – | – | – | – | – | – | – | 55 | – | 30 | 8 | 7.17 | 7.44 | – | 0.03 | 0.8 | – |
| C=CC(=O)N1CCN(c2nc(=O)n(-c3ccccc3C(C)C)c3cc(-c4c(O)cccc4F)c(Cl)cc23)CC1 | 7.48 | 4.99 | 195 | 56 | 2 | – | 191 (≈ 104 µg/mL) | – | 5 | 0.8 | 204 | < 0.5 | 7.00 | 6.47 and 6.89 | – | – | – | – |
